The results in this text go back to US8586747B2, “3,3-dimethyl tetrahydroquinoline derivatives” (Hoffmann-La Roche Inc., priority 2010, dated 2013).

This test deals with AMP-activated protein kinase (AMPK). In words: ADP Quest assay for AMPK activators. The format is biochemical. The arrangement: key: fold AMPK activation with vs without activator at 30 µM. Conditions: fold of AMPK activation to phosphorylate SAMS peptide without and with an activator at the concentration of 30 µM. The procedure:
ADP Quest™ Assay for AMPK Activators
This method evaluates AMP-activated protein kinase (AMPK) activity through detecting the accumulation of ADP product using an ADP Quest kit and determining the E30 values of the small molecular AMPK activators. ADP Quest kit (DiscoveRx, Fremont, Calif.) is stored at −20° C. before use. Before an experiment, thaw the kit (include assay buffer, ADP standard solution, reagent A and reagent B) and equilibrate to room temperature. Dispense the ADP Quest reagents into single-use aliquots and store at −20° C. The compound concentrations typically range from 0 µM to 100 µM by 2-fold dilution. AMP concentrations range from […] to 1 mM as the reference control. In an assay, thaw and equilibrate the assay buffer, reagent A and reagent B to room temperature for 30 minutes prior to use. Mix ATP, SAMS peptide substrate and compound, and place them into the 384-well assay plate. Add reagent A and B based on the assay kit protocol. Incubate the assay plate at room temperature for 30 minutes after addition the mixture followed by the addition of AMPK protein (Invitrogen, CA) to initiate the AMPK phosphorylation reaction. At the same time, reactions with AMPK activator AMP in the absence of enzyme is included as blank control. The reaction fluorescence signal is monitored and recorded on Envision in kinetic mode with the excitation wavelength of 530 nm and emission wavelength of 590 nm. The E30 value, defined as the fold of AMPK activation to phosphorylate SAMS peptide without and with an activator at the concentration of 30 µM, is calculated and analyzed using Prism 5.0.
In the case of `CC(C)N(C(N)=O)c1cccc(C2Nc3ccc(C(=O)O)cc3CC2(C)C)c1` (stereo not drawn) [Example 32, 2-[3-(1-Isopropyl-ureido)-phenyl]-3,3-dimethyl-1,2,3,4-tetrahydro-quinoline-6-carboxylic acid], the E30 came to 1.38.

`CC1(C)Cc2cc(C(=O)O)ccc2NC1c1cccc(NC2(C(=O)O)CC2)c1` (stereo not drawn) [Example 44, 2-[3-(1-Carboxy-cyclopropylamino)-phenyl]-3,3-dimethyl-1,2,3,4-tetrahydro-quinoline-6-carboxylic acid] showed an E30 of 2.67.

`CC(C)(CO)Nc1cccc(C2Nc3ccc(C(=O)O)cc3CC2(C)C)c1` (stereo not drawn) [Example 29, 2-[3-(2-Hydroxy-1,1-dimethyl-ethylamino)-phenyl]-3,3-dimethyl-1,2,3,4-tetrahydro-quinoline-6-carboxylic acid] yielded an E30 of 1.34.

Molecule `CC1(C)Cc2cc(C(=O)NS(C)(=O)=O)ccc2NC1c1cc(C#N)cc(N2CCOCC2)c1` (stereo not drawn) [Example 69, N-[2-(3-Cyano-5-morpholin-4-yl-phenyl)-3,3-dimethyl-1,2,3,4-tetrahydro-quinoline-6-carbonyl]-methanesulfonamide] displayed an E30 of 1.28.

Regarding `CC1(C)Cc2cc(C(=O)O)ccc2NC1c1ccc(F)c(NC(=O)c2ccc(F)cc2Cl)c1` (stereo not drawn) [Example 190, 2-(3-(2-Chloro-4-fluorobenzamido)-4-fluorophenyl)-3,3-dimethyl-1,2,3,4-tetrahydroquinoline-6-carboxylic acid], the E30 was found to be 1.3.

`CN(C)C(=O)N(C)c1cccc(C2Nc3ccc(C(=O)O)cc3CC2(C)C)c1` (stereo not drawn) [Example 30, 3,3-Dimethyl-2-[3-(trimethyl-ureido)-phenyl]-1,2,3,4-tetrahydro-quinoline-6-carboxylic acid] yielded an E30 of 1.45.

`CC1(C)Cc2cc(Cl)cc(C(=O)NS(=O)(=O)C3CC3)c2NC1c1cccc(NC(=O)c2cnccn2)c1` (stereo not drawn) [Example 2, Pyrazine-2-carboxylic acid [3-(6-chloro-8-cyclopropanesulfonylaminocarbonyl-3,3-dimethyl-1,2,3,4-tetrahydro-quinolin-2-yl)-phenyl]-amide] returned an E30 of 1.42.

In turn, `CC1(C)Cc2c(C(=O)O)ccc(Cl)c2NC1c1cccc(N2CCOCC2)c1` (stereo not drawn) [Example 111, 8-Chloro-3,3-dimethyl-2-(3-morpholin-4-yl-phenyl)-1,2,3,4-tetrahydro-quinoline-5-carboxylic acid] had an E30 of 1.24.

Consider `COc1cc(C2Nc3ccc(C(=O)O)cc3CC2(C)C)cc(N2CCOCC2)c1` (stereo not drawn) [Example 66, 2-(3-Methoxy-5-morpholin-4-yl-phenyl)-3,3-dimethyl-1,2,3,4-tetrahydro-quinoline-6-carboxylic acid], for which the E30 is on record as 1.42.

`COc1cc(C2Nc3ccc(C(=O)NS(=O)(=O)C4CC4)cc3CC2(C)C)cc(N2CCOCC2)c1` (stereo not drawn) [Example 67, Cyclopropanesulfonic acid [2-(3-methoxy-5-morpholin-4-yl-phenyl)-3,3-dimethyl-1,2,3,4-tetrahydro-quinoline-6-carbonyl]-amide] registered an E30 of 1.38.

Molecule `CC(C)(C)c1ccc(-c2cccc(C3Nc4ccc(F)c(C(=O)O)c4CC3(C)C)c2)cc1` (stereo not drawn) [Example 151, 2-(4′-tert-Butyl-biphenyl-3-yl)-6-fluoro-3,3-dimethyl-1,2,3,4-tetrahydro-quinoline-5-carboxylic acid] yielded an E30 of 1.66.

`CC1(C)Cc2cc(C(=O)O)ccc2NC1c1cccc(N2CC(=O)NC2=O)c1` (stereo not drawn) [Example 19, 2-[3-(2,4-Dioxo-imidazolidine-1-yl)-phenyl]-3,3-dimethyl-1,2,3,4-tetrahydro-quinoline-6-carboxylic acid] had an E30 of 1.38.

`CC1(C)Cc2c(cc(F)cc2C(=O)O)NC1c1cccc(N2CCOCC2)c1` (stereo not drawn) [Example 134, 7-Fluoro-3,3-dimethyl-2-(3-morpholin-4-yl-phenyl)-1,2,3,4-tetrahydro-quinoline-5-carboxylic acid] came in with an E30 of 1.32.

`CN1CCC(NC(=O)c2cccc(C3Nc4c(cccc4C(=O)O)CC3(C)C)c2)C1` (stereo not drawn) [Example 224, 3,3-Dimethyl-2-(3-(1-methylpyrrolidin-3-ylcarbamoyl)phenyl)-1,2,3,4-tetrahydroquinoline-8-carboxylic acid] gave an E30 of 1.43.

Regarding `CC1(C)Cc2cc(C(=O)O)ccc2NC1c1ccc(NC(=O)Cc2ccccc2)cc1` (stereo not drawn) [Example 193, 3,3-Dimethyl-2-(4-(2-phenylacetamido)phenyl)-1,2,3,4-tetrahydroquinoline-6-carboxylic acid], the E30 is given as 1.26.

For the molecule `CC1(C)Cc2cc(C(=O)O)ccc2NC1c1ccc(NS(=O)(=O)c2ccc(F)cc2)cc1` (stereo not drawn) [Example 181, 2-(4-(4-Fluorophenylsulfonamido)phenyl)-3,3-dimethyl-1,2,3,4-tetrahydroquinoline-6-carboxylic acid], the E30 is given as 1.31.

Regarding `CC1(C)Cc2cc(C(=O)O)ccc2NC1c1ccc(F)c(NC(=O)C2CCCC2)c1` (stereo not drawn) [Example 196, 2-(3-(Cyclopentanecarboxamido)-4-fluorophenyl)-,3-dimethyl-1,2,3,4-tetrahydroquinoline-6-carboxylic acid], the E30 came to 1.25.

`Cc1ccccc1N1CCN(c2cccc(C3Nc4c(cccc4C(=O)O)CC3(C)C)c2)CC1` (stereo not drawn) [Example 94, 3,3-Dimethyl-2-[3-(4-o-tolyl-piperazin-1-yl)-phenyl]-1,2,3,4-tetrahydro-quinoline-8-carboxylic acid] yielded an E30 of 1.33.

For `CC1(C)Cc2c(C(=O)NS(=O)(=O)C3CC3)ccc(Cl)c2NC1c1cccc(N2CCOCC2)c1` (stereo not drawn) [Example 133, Cyclopropanesulfonic acid [8-chloro-3,3-dimethyl-2-(3-morpholin-4-yl-phenyl)-1,2,3,4-tetrahydro-quinoline-5-carbonyl]-amide], the E30 turned out to be 1.2.

The molecule `CC(C)c1ccc(-c2cccc(C3Nc4c(cc(Cl)cc4C(=O)O)CC3(C)C)c2)cc1` (stereo not drawn) [Example 140, 6-Chloro-2-(4′-isopropyl-biphenyl-3-yl)-3,3-dimethyl-1,2,3,4-tetrahydro-quinoline-8-carboxylic acid] came in with an E30 of 1.34.

In the case of `Cc1ccc(N2CCN(c3cccc(C4Nc5ccc(C(=O)O)cc5CC4(C)C)c3)CC2)c(C)c1` (stereo not drawn) [Example 89, 2-{3-[4-(2,4-Dimethyl-phenyl)-piperazin-1-yl]-phenyl}-3,3-dimethyl-1,2,3,4-tetrahydro-quinoline-6-carboxylic acid], the E30 stood at 1.3.

The molecule `CC1(C)Cc2cc(C(=O)O)ccc2NC1c1ccc(NC(=O)c2ccccc2)cc1` (stereo not drawn) [Example 185, 2-(4-Benzamidophenyl)-3,3-dimethyl-1,2,3,4-tetrahydroquinoline-6-carboxylic acid] gave an E30 of 1.22.

For `CC(C)(C)c1ccc(-c2cccc(C3Nc4ccc(F)c(C(=O)NS(C)(=O)=O)c4CC3(C)C)c2)cc1` (stereo not drawn) [Example 157, N-[2-(4′-tert-Butyl-biphenyl-3-yl)-6-fluoro-3,3-dimethyl-1,2,3,4-tetrahydro-quinoline-5-carbonyl]-methanesulfonamide], the E30 amounted to 1.36.

In the case of `CC1(C)Cc2c(cc(F)cc2C(=O)NS(=O)(=O)C2CC2)NC1c1cccc(N2CCOCC2)c1` (stereo not drawn) [Example 138, Cyclopropanesulfonic acid [7-fluoro-3,3-dimethyl-2-(3-morpholin-4-yl-phenyl)-1,2,3,4-tetrahydro-quinoline-5-carbonyl]-amide], the E30 is 1.21.

Consider `CC(C)Oc1ccc(-c2cccc(C3Nc4ccc(C(=O)O)cc4CC3(C)C)c2)cc1` (stereo not drawn) [Example 84, 2-(4′-Isopropoxy-biphenyl-3-yl)-3,3-dimethyl-1,2,3,4-tetrahydro-quinoline-6-carboxylic acid], for which the E30 came to 1.25.

Molecule `CC1(C)Cc2cc(C(=O)O)ccc2NC1c1cccc(NC(=O)Nc2cccc(F)c2)c1` (stereo not drawn) [Example 13, 2-{3-[3-(3-Fluoro-phenyl)-ureido]-phenyl}-3,3-dimethyl-1,2,3,4-tetrahydro-quinoline-6-carboxylic acid] displayed an E30 of 1.21.

`CC1(C)Cc2cc(C(=O)NS(=O)(=O)C3CC3)ccc2NC1c1cccc(N2CCNCC2)c1` (stereo not drawn) [Example 97, Cyclopropanesulfonic acid [3,3-dimethyl-2-(3-piperazin-1-yl-phenyl)-1,2,3,4-tetrahydro-quinoline-6-carbonyl]-amide] came in with an E30 of 1.46.

As to `Cc1ccccc1N1CCN(c2cccc(C3Nc4ccc(C(=O)O)cc4CC3(C)C)c2)CC1` (stereo not drawn) [Example 152, 3,3-Dimethyl-2-[3-(4-o-tolyl-piperazin-1-yl)-phenyl]-1,2,3,4-tetrahydroquinoline-6-carboxylic acid], the E30 worked out at 1.41.

As for `CCc1nnnn1-c1cccc(C2Nc3ccc(C(=O)NS(=O)(=O)C4CC4)cc3CC2(C)C)c1` (stereo not drawn) [Example 145, Cyclopropanesulfonic acid {2-[3-(5-ethyl-tetrazol-1-yl)-phenyl]-3,3-dimethyl-1,2,3,4-tetrahydro-quinoline-6-carbonyl}-amide], the E30 is 1.22.

Take `CC1(C)Cc2cc(C(=O)O)ccc2NC1c1ccccc1` (stereo not drawn) [Example 158, 3,3-Dimethyl-2-phenyl-1,2,3,4-tetrahydro-quinoline-6-carboxylic acid]: the E30 was 1.34.
